The values that follow come from US20230331739A1, “INDOLO HEPTAMYL OXIME ANALOG CRYSTAL AS PARP INHIBITOR AND METHOD FOR PREPARING SAME” (CHIA TAI TIANQING PHARMACEUTICAL GROUP CO., LTD., priority 2020, published 2023).

Data set [1] deals with PARylation in Lovo cells. Description: PARylation inhibition in Lovo cells. Type of data set: cell-based. The settings on record: Homo sapiens, 25 mM H2O2. How it is done: Experimental materials: test compounds, F12K medium, Lovo cells, Anti-Poly (ADP-ribose) mouse monoclonal antibody; FITC-labeled goat anti-mouse IgG; hydrogen peroxide; DAPI; PBS; methanol; acetone; Tween-20; skimmed milk powder; Envision Multimode Plate Reader.
Day One: Lovo cells were seeded on a plate at 60,000 cells/well, and then incubated overnight at 37° C./5% CO2.
1. Washing solution: Tween-20 was added to 1×PBS, and the final concentration of Tween-20 was 0.05%.
2. Blocking solution: Skimmed milk powder was added to the washing solution, and the final concentration of the skimmed milk powder was 5%.
3. Cell immobilization solution: Methanol and acetone were mixed in a ratio of 7:3.
Preparation of test compounds: Compound intermediate plate 1: The compound was diluted to final concentrations of 10 μM to 0.13 nM with DMSO and PBS, and the concentration of DMSO was 1%; Compound intermediate plate 2: The compound was diluted to final concentrations of 10 μM to 0.13 nM with DMSO and PBS containing 50 mM hydrogen peroxide, and the concentration of DMSO was 1%.
1. […]
10. […] After removal of the liquid, corresponding fluorescence values were read on Envision: FITC: 480 nm and 530 nm; DAPI: 360 nm and 460 nm. […]

Data set [2] is described as follows: Protein binding rate in plasma (equilibrium dialysis), CD-1 mouse. It is filed as in vitro ADME. The following applies: CD-1 mouse plasma, 4 h dialysis. On the procedure: The protein binding rates of the compound disclosed herein in plasma of human, CD-1 mice and SD rats were determined. 796 μL of blank plasma was taken from human, CD-1 mice or SD rats, and 4 μL of test compound working solution (400 μM) or warfarin working solution (400 μM) was added to achieve a final concentration of 2 μM of both the test compound and the warfarin in the plasma sample. The samples were mixed well. The final concentration of organic phase DMSO was 0.5%; 50 μL of test compound and warfarin plasma sample was pipetted into a sample receiving plate (in triplicate), and a corresponding volume of blank plasma or buffer was immediately added such that the final volume in each sample well was 100 μL. The volume ratio of plasma to dialysis buffer was 1:1. […] All samples were subjected to LC/MS analysis after protein precipitation, and the protein binding rates and the recovery rates were calculated by the following formulas: protein unbinding rate (%)=100× drug concentration passing through dialysis membrane/drug concentration not passing through dialysate; protein binding rate (%)=100−protein unbinding rate (%); recovery rate (%)=100×(drug concentration passing through dialysis membrane+drug concentration not passing through dialysate)/total drug concentration before dialysis.

Data set [3] deals with CYP2C19 (Homo sapiens (Human), UniProt P33261). Description: Inhibition against cytochrome P450 isoenzymes, CYP2C19. It is filed as in vitro ADME. The settings on record: human liver microsomes. How it is done:
The inhibition of the test compound against different subtypes of the human cytochrome P450 isoenzyme was determined. The test compound, a standard inhibitor (100×final concentration) and a mixed substrate working solution were prepared; the microsomes frozen in a refrigerator at −80° C. were taken out and thawed. […]

Chain of CYP2C19 (P33261 whole entry): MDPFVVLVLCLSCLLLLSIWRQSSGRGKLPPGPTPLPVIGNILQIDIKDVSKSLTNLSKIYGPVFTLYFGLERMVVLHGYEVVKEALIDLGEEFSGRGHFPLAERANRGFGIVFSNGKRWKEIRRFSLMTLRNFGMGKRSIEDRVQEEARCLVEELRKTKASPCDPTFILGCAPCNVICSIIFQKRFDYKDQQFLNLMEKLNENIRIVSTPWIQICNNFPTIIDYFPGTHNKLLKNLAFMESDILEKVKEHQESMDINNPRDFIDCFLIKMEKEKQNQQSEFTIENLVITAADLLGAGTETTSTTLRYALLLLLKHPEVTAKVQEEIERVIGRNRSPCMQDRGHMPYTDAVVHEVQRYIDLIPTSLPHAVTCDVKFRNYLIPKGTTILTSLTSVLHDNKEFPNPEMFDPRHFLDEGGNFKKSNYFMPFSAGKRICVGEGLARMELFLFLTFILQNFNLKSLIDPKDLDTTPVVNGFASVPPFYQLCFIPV

As for `C[C@]1(c2ccc(-c3[nH]c4cc(F)cc5c4c3CONC5=O)cc2)CCCN1` [Compound 1], the values for the 50% inhibitory concentration (IC50) in data set [1] and in data set [3] were 19 nM and 8.33 µM, respectively. Besides, in data set [2], the fraction unbound at 4 h, 2 μM was 0.104.
